Measurements reported in US11219218B2, “Methods of enhancing algae production” (Boise State University, priority 2018, dated 2022).
Like-named read-outs stand apart in the source and are kept apart here.

Experiments:
[1] = test system: B. plicatilis
[2] = test system: Chlorella sorokiniana; conditions: Gutierrez et al., 2016; cited from earlier work
[3] = test system: Scenedesmus obliquus; conditions: Abeliovich and Azov, 1976; cited from earlier work
[4] = test system: Brachionus rotifer; conditions: cited from earlier work
[5] = test system: B. plicatilis; conditions: for effect of elevated free ammonia exposure time on 24-hour rotifer survival: pH 9, exposure 0-12 hours; for mean rotifer densities over the eight-day experiment: f/2 and ADE media
Procedure: (§1) Five free ammonia exposure times were chosen (0, 1, 2, 6, and 12 hours) with the goal of identifying which times may lead to an optimal reduction of B. plicatilis populations without negatively affecting N. oculata growth. We also used a rotifer-free control to observe the growth of N. oculata with neither rotifers nor elevated free ammonia exposure relative to experimental treatments. We conducted this experiment in both defined media (f/2) and dairy wastewater (ADE) to observe any differences between media types. For the defined medium trial, we created culture mixtures containing f/2 in ASW, 0.01 M Tris base, N. oculata at approximately 1×10^6 cells mL^−1 and B. plicatilis at approximately 10 rotifers mL^−1. NH4Cl was added to this mixture to initiate the period of free ammonia exposure. Similarly, for the dairy wastewater trial, we created culture mixtures containing ASW, 0.01 M Tris base, N. oculata at approximately 1×10^6 cells mL^−1, and B. plicatilis at approximately 10 rotifers/mL. The initial cell density of N. oculata was meant to represent a high-density culture nearing early stationary phase, which also allowed for increases in cell density. The initial rotifer density was chosen to represent initial stages of a contamination event after exposure of the algal culture to colonizing rotifer pests, at which point contamination is detectable yet treatable. ADE was added to this mixture to initiate the period of free ammonia exposure. For both trials, pH was immediately adjusted to 9 for the 1, 2, 6, and 12 hour treatments and held at this pH for the designated exposure time. The 0 hour and control treatments were adjusted to pH 6.3-6.5 via CO2 addition prior to addition of the ammonium source, thereby eliminating any exposure to elevated free ammonia. […] Thus, all treatments within an experiment received the same amount of CO2 and the same amount of total NH3—N. Flasks were shaken and stirred once daily on a stir plate while pH was being adjusted to desired level. In this experiment, pH was measured and controlled in each treatment using American Marine Pinpoint pH controllers.
(§2) Samples for total NH3—N were collected at the beginning and end of the exposure time for each treatment in order to quantify potential loss of N from the system caused by volatilization of free ammonia. Densities of N. oculata and B. plicatilis were measured at the initial free ammonia exposure time, and every 24 hours thereafter for eight days. Live B. plicatilis were enumerated in triplicate 1 mL counts in a Sedgewick-Rafter counting chamber (Wildco item #EW-05491-64), and growth of N. oculata was tracked by both OD680 measurement and direct cell counts. Final ash free dry weight (AFDW) was measured on day eight for all replicates.
(§3) We chose this range in order to eliminate possible free ammonia inhibition after the designated exposure period while also staying within the pH range for optimal growth of N. oculata.

[6] = test system: N. oculata; conditions: for algal growth rate / final AFDW: co-culture with B. plicatilis; for final AFDW: day eight
Procedure: as §1, §2, §3

[7] = test system: Nannochloropsis oculata; conditions: Gutierrez et al., 2016, cited from earlier work
[8] = test system: Chlorella pyrenoidosa; conditions: Tan et al., 2015; cited from earlier work
[9] = test system: N. oculata

N [free ammonia, ammonia]
prediction formula for 24-hour rotifer survival against free ammonia concentration (FIG. 1A) ([1]; 5% ADE medium): ln(% survival)=3.606-0.0357*exposure time
relationship between initial free ammonia concentration and B. plicatilis survival after 24 hours ([1]; 5% dairy ADE, free ammonia 0.77-48.9 mg L^−1 (pH 7-9)): significant negative relationship
relationship between initial free ammonia concentration and B. plicatilis survival after 24 hours ([1]; ASW medium with NH4Cl, free ammonia 0.65-41.6 mg L^−1 (pH 7-9)): significant negative relationship
highest level tested, not inhibited [2]: 16 mg free NH3—N
concentration tolerated without inhibition of photosynthesis or growth rate [3]: up to 28 mg/L free NH3—N
concentration that causes complete mortality ([4]; Schlüter and Groeneweg, 1985): over 5 mg/L free NH3—N
concentration that reduces Brachionus rotifer reproduction ([4]; de Araujo et al., 2000): ≥ 2.4 mg/L
prediction formula for 24-hour B. plicatilis survival against exposure time (FIG. 3) ([5]; ADE medium, 52.8 mg L^−1 free ammonia): ln(% survival)=4.768-0.2902*exposure time
effect of elevated free ammonia exposure time on 24-hour rotifer survival ([5]; dairy ADE medium): significantly decreased
effect of elevated free ammonia exposure time on 24-hour rotifer survival ([5]; f/2 medium): significantly decreased
mean rotifer densities over the eight-day experiment ([5]; six-hour exposure time): remained below the initial density
mean rotifer densities over the eight-day experiment ([5]; twelve-hour exposure time): remained below the initial density
rotifer density over the eight-day experiment ([5]; two hours or less of exposure, ADE medium): proliferated, with up to an order of magnitude increase in rotifer density
effects on the alga Nannochloropsis oculata ([6]; 6-12 hours of elevated free ammonia, both media types): no negative effects
algal growth rate ([6]; 6-hour exposure time): 0.70 ± 0.01 day⁻¹
final AFDW ([6]; 6-hour exposure time): 0.37 ± 0.004 g/L
algal growth rate ([6]; 12-hour exposure time): 0.60 ± 0.06 day⁻¹
final AFDW ([6]; 12-hour exposure time): 0.38 ± 0.004 g/L
highest level tested, not inhibited [7]: 16 mg free NH3—N
lipid content of N. oculata ([7]; exposure to high free ammonia levels): not significantly altered
concentration tolerated without inhibition of photosynthesis or growth rate [8]: up to 20 mg/L free NH3—N
effect of free ammonia concentration on final OD680 levels ([9]; ADE cultures): no effect
effect of initial free ammonia on growth rates ([9]; ADE medium): no effect
OD680 levels of N. oculata with increasing free ammonia levels ([9]; f/2 medium): increased
effect of initial free ammonia on growth rates ([9]; f/2 medium): no effect
inhibition of N. oculata ([9]; f/2 or ADE media, any of the free ammonia levels tested, seven days): no observed inhibition
